For six compounds, IC50 results are on record in US20240408216A1, “PROTEIN INHIBITOR OR DEGRADING AGENT, PHARMACEUTICAL COMPOSITION CONTAINING SAME AND PHARMACEUTICAL USE” (JING MEDICINE TECHNOLOGY (SHANGHAI) LTD., priority 2021, published 2024).

Bounds are passed on as bounds.

The first test relates to A431. Nature of the test: Cell proliferation IC50 assay (Cell Titer GLO), A431 cells. It counts as cell-based. The following applies: Homo sapiens, A-431; Table 6; A431, 72 h; read-out: A431 IC50. As for the experimental part: (§1) IC50 of compounds in the present invention was determined by Cell Titer GLO reagent from Promega. The procedures are as follows:
(§2) Tumor cells were cultured in specified medium in an incubator at 37° C. and 5% CO2. The cells were passaged periodically. Cells at the logarithmic growth phase were collected for plating at a density of 2000-4000 cells/well. The next day, the compounds of the present invention were serially diluted and added to the cells, with DMSO being the negative control and the culture media without cells being the blank control. The plate was incubated in the incubator for 72 h. The cell viability assay was performed by adding the detection reagents to the cell culture media according to Cell Titer GLO reagent instructions and detecting luminescent signals on an EnVision microplate reader (PerkinElmer).
(§3) Inhibition of cell growth by the compounds of the present invention was plotted by Prism Graphpad software for statistically calculating the IC50 of the compound of the present invention.
One may read the IC50 as the concentration that inhibits the measured activity by half. As for `CCc1cc(Nc2ncc(Cl)c(Nc3ccccc3P(C)(C)=O)n2)c(OC)cc1N1CCC(N2CCN([C@H]3C[C@@H](Oc4cccc5c4CN(C4CCC(=O)NC4=O)C5=O)C3)CC2)CC1` (stereo partly drawn) [Example E159], the IC50 came to 1850 nM.

For the compound `CCc1cc(Nc2ncc(Cl)c(Nc3ccccc3P(C)(C)=O)n2)c(OC)cc1N1CCC(N2CCN(CCCCOc3cc4c(cc3F)C(=O)N(C3CCC(=O)NC3=O)C4)CC2)CC1` (stereo not drawn) [Example E92], the IC50 worked out at 1170 nM.

In the case of `CCc1cc(Nc2ncc(Cl)c(Nc3ccccc3P(C)(C)=O)n2)c(OC)cc1N1CCC(N2CCN(CCCCOc3ccc4c(c3F)CN(C3CCC(=O)NC3=O)C4=O)CC2)CC1` (stereo not drawn) [Example E59], the IC50 worked out at 1440 nM.

Consider `CCc1cc(Nc2ncc(Cl)c(Nc3ccccc3P(C)(C)=O)n2)c(OC)cc1N1CCC(N2CCN(C3(C#Cc4cccc5c4CN(C4CCC(=O)NC4=O)C5=O)CC3)CC2)CC1` (stereo not drawn) [Example E84], for which the IC50 turned out to be 1970 nM.

As to `CCc1cc(Nc2ncc(Cl)c(Nc3ccccc3P(C)(C)=O)n2)c(OC)cc1N1CCC2(CC1)CC(N(C)CCCC#Cc1cccc3c1CN(C1CCC(=O)NC1=O)C3=O)C2` (stereo not drawn) [Example E60], the IC50 is > 4000 nM.

As to `CCc1cc(Nc2ncc(Cl)c(Nc3ccccc3P(C)(C)=O)n2)c(OC)cc1N1CCC(N2CCc3ccc(Oc4cccc5c4CN(C4CCC(=O)NC4=O)C5=O)cc3CC2)CC1` (stereo not drawn) [Example E34], the IC50 was found to be 1480 nM.

In a further test the target is T1, BaF3 (EGFR Del19/C797S) (Homo sapiens, UniProt P00533, C797S, cells depend on it, form not given).
T1 construct: BaF3 (EGFR Del19/C797S)|DC|RPMI1640 + 10% FBS
T1 sequence (P00533 with tags, fused parts or gaps DEL746-750/C797S, form open): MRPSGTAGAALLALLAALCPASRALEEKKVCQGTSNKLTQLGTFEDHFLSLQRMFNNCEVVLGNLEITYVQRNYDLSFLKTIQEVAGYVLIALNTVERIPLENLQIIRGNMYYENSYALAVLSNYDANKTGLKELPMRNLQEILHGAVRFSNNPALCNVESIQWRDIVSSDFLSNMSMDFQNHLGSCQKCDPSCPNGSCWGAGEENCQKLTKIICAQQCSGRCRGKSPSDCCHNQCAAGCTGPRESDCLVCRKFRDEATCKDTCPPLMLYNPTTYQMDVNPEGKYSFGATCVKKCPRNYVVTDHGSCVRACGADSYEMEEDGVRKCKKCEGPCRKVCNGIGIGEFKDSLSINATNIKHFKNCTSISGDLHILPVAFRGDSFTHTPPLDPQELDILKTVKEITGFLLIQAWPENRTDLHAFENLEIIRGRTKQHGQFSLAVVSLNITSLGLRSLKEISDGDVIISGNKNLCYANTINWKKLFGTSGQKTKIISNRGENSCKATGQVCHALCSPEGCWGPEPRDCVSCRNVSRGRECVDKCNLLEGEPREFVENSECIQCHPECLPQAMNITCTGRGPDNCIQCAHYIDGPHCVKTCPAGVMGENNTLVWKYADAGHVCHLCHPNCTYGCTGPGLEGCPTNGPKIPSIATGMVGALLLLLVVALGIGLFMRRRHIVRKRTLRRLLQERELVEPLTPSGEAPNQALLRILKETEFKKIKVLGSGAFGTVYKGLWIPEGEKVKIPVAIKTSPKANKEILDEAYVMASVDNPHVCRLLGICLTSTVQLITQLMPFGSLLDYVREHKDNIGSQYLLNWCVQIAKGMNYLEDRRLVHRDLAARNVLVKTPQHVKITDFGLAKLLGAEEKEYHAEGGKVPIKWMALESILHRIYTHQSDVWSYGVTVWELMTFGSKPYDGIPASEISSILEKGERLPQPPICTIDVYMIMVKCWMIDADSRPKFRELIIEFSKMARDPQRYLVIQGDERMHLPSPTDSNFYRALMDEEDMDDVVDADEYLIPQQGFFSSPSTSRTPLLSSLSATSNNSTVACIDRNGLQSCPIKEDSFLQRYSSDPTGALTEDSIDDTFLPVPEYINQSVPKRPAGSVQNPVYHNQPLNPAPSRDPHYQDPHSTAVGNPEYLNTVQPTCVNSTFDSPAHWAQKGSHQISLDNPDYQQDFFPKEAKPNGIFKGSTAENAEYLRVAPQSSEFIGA
Nature of the test: Cell proliferation IC50 assay (Cell Titer GLO), BaF3 DC cells. It counts as cell-based, mouse. The settings on record: Table 6, 72 h. As for the experimental part: as §1, §2, §3
(In general: ATP-based viability assays read luminescence as a measure of living cells.)
Compound `CCc1cc(Nc2ncc(Cl)c(Nc3ccccc3P(C)(C)=O)n2)c(OC)cc1N1CCC(N2CCN([C@H]3C[C@@H](Oc4cccc5c4CN(C4CCC(=O)NC4=O)C5=O)C3)CC2)CC1` (stereo partly drawn) [Example E159] came in with an IC50 of 1.4 nM.

Compound `CCc1cc(Nc2ncc(Cl)c(Nc3ccccc3P(C)(C)=O)n2)c(OC)cc1N1CCC(N2CCN(CCCCOc3cc4c(cc3F)C(=O)N(C3CCC(=O)NC3=O)C4)CC2)CC1` (stereo not drawn) [Example E92] returned an IC50 of 12.7 nM.

In the case of `CCc1cc(Nc2ncc(Cl)c(Nc3ccccc3P(C)(C)=O)n2)c(OC)cc1N1CCC(N2CCN(CCCCOc3ccc4c(c3F)CN(C3CCC(=O)NC3=O)C4=O)CC2)CC1` (stereo not drawn) [Example E59], half-maximal inhibition (IC50) was put at 22.7 nM.

On to `CCc1cc(Nc2ncc(Cl)c(Nc3ccccc3P(C)(C)=O)n2)c(OC)cc1N1CCC(N2CCN(C3(C#Cc4cccc5c4CN(C4CCC(=O)NC4=O)C5=O)CC3)CC2)CC1` (stereo not drawn) [Example E84], for which 25.4 nM corresponded to half-maximal inhibition (IC50).

`CCc1cc(Nc2ncc(Cl)c(Nc3ccccc3P(C)(C)=O)n2)c(OC)cc1N1CCC2(CC1)CC(N(C)CCCC#Cc1cccc3c1CN(C1CCC(=O)NC1=O)C3=O)C2` (stereo not drawn) [Example E60] came in with an IC50 of 39.7 nM.

Consider `CCc1cc(Nc2ncc(Cl)c(Nc3ccccc3P(C)(C)=O)n2)c(OC)cc1N1CCC(N2CCc3ccc(Oc4cccc5c4CN(C4CCC(=O)NC4=O)C5=O)cc3CC2)CC1` (stereo not drawn) [Example E34], for which half-maximal inhibition (IC50) required 2.5 nM.

The test system of the next test is BaF3 (EGFR WT). In words: Cell proliferation IC50 assay (Cell Titer GLO), BaF3 WT cells. It counts as cell-based. The settings on record: Mus musculus, Ba/F3 EGFR, Table 6, 10 ng/ml EGF, 72 h. How it is done: as §1, §2, §3
With `CCc1cc(Nc2ncc(Cl)c(Nc3ccccc3P(C)(C)=O)n2)c(OC)cc1N1CCC(N2CCN([C@H]3C[C@@H](Oc4cccc5c4CN(C4CCC(=O)NC4=O)C5=O)C3)CC2)CC1` (stereo partly drawn) [Example E159], the IC50 is 646 nM.

As for `CCc1cc(Nc2ncc(Cl)c(Nc3ccccc3P(C)(C)=O)n2)c(OC)cc1N1CCC(N2CCN(CCCCOc3cc4c(cc3F)C(=O)N(C3CCC(=O)NC3=O)C4)CC2)CC1` (stereo not drawn) [Example E92], the IC50 was found to be 692 nM.

On to `CCc1cc(Nc2ncc(Cl)c(Nc3ccccc3P(C)(C)=O)n2)c(OC)cc1N1CCC(N2CCN(CCCCOc3ccc4c(c3F)CN(C3CCC(=O)NC3=O)C4=O)CC2)CC1` (stereo not drawn) [Example E59], for which the half-inhibitory concentration (IC50) is 1320 nM.

Turning to `CCc1cc(Nc2ncc(Cl)c(Nc3ccccc3P(C)(C)=O)n2)c(OC)cc1N1CCC(N2CCN(C3(C#Cc4cccc5c4CN(C4CCC(=O)NC4=O)C5=O)CC3)CC2)CC1` (stereo not drawn) [Example E84], the IC50 was > 4000 nM.

`CCc1cc(Nc2ncc(Cl)c(Nc3ccccc3P(C)(C)=O)n2)c(OC)cc1N1CCC2(CC1)CC(N(C)CCCC#Cc1cccc3c1CN(C1CCC(=O)NC1=O)C3=O)C2` (stereo not drawn) [Example E60]: the IC50 was > 4000 nM.

`CCc1cc(Nc2ncc(Cl)c(Nc3ccccc3P(C)(C)=O)n2)c(OC)cc1N1CCC(N2CCc3ccc(Oc4cccc5c4CN(C4CCC(=O)NC4=O)C5=O)cc3CC2)CC1` (stereo not drawn) [Example E34] came in with an IC50 of 1260 nM.

Another test relates to BaF3 (EGFR L858R/T790M/C797S). In words: Cell proliferation IC50 assay (Cell Titer GLO), BaF3 LTC cells. The following applies: Mus musculus, Ba/F3 EGFR, Table 6, 72 h. It counts as cell-based. How it is done:
as §1, §2, §3
The compound `CCc1cc(Nc2ncc(Cl)c(Nc3ccccc3P(C)(C)=O)n2)c(OC)cc1N1CCC(N2CCN([C@H]3C[C@@H](Oc4cccc5c4CN(C4CCC(=O)NC4=O)C5=O)C3)CC2)CC1` (stereo partly drawn) [Example E159] yielded an IC50 of 21.9 nM.

Regarding `CCc1cc(Nc2ncc(Cl)c(Nc3ccccc3P(C)(C)=O)n2)c(OC)cc1N1CCC(N2CCN(CCCCOc3cc4c(cc3F)C(=O)N(C3CCC(=O)NC3=O)C4)CC2)CC1` (stereo not drawn) [Example E92], 72.6 nM corresponded to half-maximal inhibition (IC50).

The compound `CCc1cc(Nc2ncc(Cl)c(Nc3ccccc3P(C)(C)=O)n2)c(OC)cc1N1CCC(N2CCN(CCCCOc3ccc4c(c3F)CN(C3CCC(=O)NC3=O)C4=O)CC2)CC1` (stereo not drawn) [Example E59] came in with an IC50 of 67.1 nM.

For `CCc1cc(Nc2ncc(Cl)c(Nc3ccccc3P(C)(C)=O)n2)c(OC)cc1N1CCC(N2CCN(C3(C#Cc4cccc5c4CN(C4CCC(=O)NC4=O)C5=O)CC3)CC2)CC1` (stereo not drawn) [Example E84], the IC50 stood at 85.5 nM.

`CCc1cc(Nc2ncc(Cl)c(Nc3ccccc3P(C)(C)=O)n2)c(OC)cc1N1CCC2(CC1)CC(N(C)CCCC#Cc1cccc3c1CN(C1CCC(=O)NC1=O)C3=O)C2` (stereo not drawn) [Example E60] showed an IC50 of 77.1 nM.

`CCc1cc(Nc2ncc(Cl)c(Nc3ccccc3P(C)(C)=O)n2)c(OC)cc1N1CCC(N2CCc3ccc(Oc4cccc5c4CN(C4CCC(=O)NC4=O)C5=O)cc3CC2)CC1` (stereo not drawn) [Example E34] displayed an IC50 of 16.9 nM.
